Experiments:
[1] = biological target: T1, rDlP5βR1 (Digitalis lanata, UniProt Q6PQJ9); assay: NADPH consumption at […] nm, spectrophotometric; format: biochemical; settings: 0.2 mM NADPH, 40 °C, substrate 0.01-1.6 mM
T1 construct: recombinant in E. coli, pQE30 vector (Herl et al. 2006), His-tagged, IMAC purified

[2] = test system: T2, rDlP5βR2; assay: NADPH consumption at […] nm, spectrophotometric; format: biochemical, Digitalis lanata; settings: 0.2 mM NADPH, 40 °C, substrate 0.01-1.6 mM
T2 construct: gene P5βR2; recombinant in E. coli SoluBL21, pDEST17 vector, His-tagged, IMAC purified; cloned with primers deduced from D. purpurea P5βR2

T1 sequence (Q6PQJ9 whole entry): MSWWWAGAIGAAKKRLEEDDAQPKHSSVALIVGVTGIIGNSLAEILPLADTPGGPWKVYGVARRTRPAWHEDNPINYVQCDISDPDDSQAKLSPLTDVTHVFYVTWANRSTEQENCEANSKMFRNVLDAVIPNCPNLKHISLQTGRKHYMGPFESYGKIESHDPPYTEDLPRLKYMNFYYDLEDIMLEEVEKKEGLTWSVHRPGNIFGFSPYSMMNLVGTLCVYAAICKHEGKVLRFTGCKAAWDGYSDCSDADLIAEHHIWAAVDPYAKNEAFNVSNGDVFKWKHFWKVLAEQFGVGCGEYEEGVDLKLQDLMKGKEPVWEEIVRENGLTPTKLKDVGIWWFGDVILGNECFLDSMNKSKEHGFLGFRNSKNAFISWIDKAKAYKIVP

SMILES | Km [1] [µM] | Km [2] [µM]
C=CC(C)=O [methyl vinyl ketone] | 270 | 210
CC(=O)[C@H]1CC[C@H]2[C@@H]3CCC4=CC(=O)CC[C@]4(C)[C@H]3CC[C@]12C [progesterone] |  | 230

Source: paper PMC8376734, “RNAi-mediated gene knockdown of progesterone 5β-reductases in Digitalis lanata reduces 5β-cardenolide content” (Plant Cell Reports, 2021)
